Results taken from ChEMBL document CHEMBL1201862, “PubChem BioAssay data set” (2004).
Calls of active or inactive are those of the source.

What was measured:
[1] = Luminescence Cell-Based Dose Confirmation HTS to Identify Activators of 5'UTR Stem-Loop Driven Alpha-Synuclein mRNA Translation in H4 Neuroglioblastoma Cells. [Related pubchem assays: 1829 (Project Summary), 1814 (Primary HTS)]; type: functional
[2] = system: H4; experiment: Luminescence Cell-Based Dose Response HTS to Identify Activators of 5'UTR Stem-Loop Driven Prion Protein mRNA Translation in H4 Neuroglioblastoma Cells. [Related pubchem assays: 1829 (Project Summary), 1814 (Primary HTS)]; type: functional; details: Homo sapiens
[3] = molecular target: T1, Replicative DNA helicase DnaB (Mycobacterium tuberculosis, UniProt P9WMR3); experiment: DnaB intein splicing inhibitors, dose response, biochemical, cell-free fluorescence (AID 449749); type: functional
T1 sequence (P9WMR3 whole entry): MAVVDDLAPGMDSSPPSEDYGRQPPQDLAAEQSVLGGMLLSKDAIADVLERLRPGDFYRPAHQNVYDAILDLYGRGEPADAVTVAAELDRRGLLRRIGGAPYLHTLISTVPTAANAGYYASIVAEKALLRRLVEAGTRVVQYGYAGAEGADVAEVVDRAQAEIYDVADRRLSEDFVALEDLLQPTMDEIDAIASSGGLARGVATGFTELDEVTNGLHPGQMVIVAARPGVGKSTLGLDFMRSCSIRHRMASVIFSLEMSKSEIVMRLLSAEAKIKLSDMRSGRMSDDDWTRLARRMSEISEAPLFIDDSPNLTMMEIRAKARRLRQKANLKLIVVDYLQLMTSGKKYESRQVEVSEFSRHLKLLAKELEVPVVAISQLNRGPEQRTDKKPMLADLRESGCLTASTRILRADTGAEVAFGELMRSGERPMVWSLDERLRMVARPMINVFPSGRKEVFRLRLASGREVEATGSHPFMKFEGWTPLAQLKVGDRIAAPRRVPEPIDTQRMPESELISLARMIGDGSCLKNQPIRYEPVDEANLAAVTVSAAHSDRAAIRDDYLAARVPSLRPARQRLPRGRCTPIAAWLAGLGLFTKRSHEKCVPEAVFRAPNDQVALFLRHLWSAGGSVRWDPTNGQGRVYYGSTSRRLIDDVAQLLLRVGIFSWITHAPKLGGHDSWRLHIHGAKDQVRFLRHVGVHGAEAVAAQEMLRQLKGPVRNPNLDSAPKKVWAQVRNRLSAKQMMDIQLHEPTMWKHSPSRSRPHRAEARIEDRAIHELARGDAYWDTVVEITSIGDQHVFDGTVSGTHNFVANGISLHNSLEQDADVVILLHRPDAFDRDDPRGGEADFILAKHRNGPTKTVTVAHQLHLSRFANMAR

[4] = system: HEK293; experiment: cells; details: Homo sapiens
[5] = system: HEK293; experiment: cells; details: Homo sapiens; remark: listed apart in the source
[6] = HGIII-sPLA2 enzyme inhibition potency – biochemical, QFRET, IC50, dose response (AID 743457);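 also: green fluorescence rise as the enzyme cleaves BODIPY PC-A2 in liposomes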
[7] = Luminescence Cell-Based Dose Response HTS to Identify Activators of Luciferase Translation or Activity in H4 […] Cells. [Related pubchem assays: 1829 (Project Summary), 1814 (Primary HTS)]; type: functional
[8] = molecular target: T2, Protein RecA (Mycobacterium tuberculosis, UniProt P9WHJ3); experiment: Fluorescence Cell-Free Homogeneous Dose Retest to Identify Inhibitors of RecA-Intein Splicing Activity. [Related pubchem assays (depositor defined):AID2097, AID2223, AID489010, AID492950]; type: functional
T2 sequence (P9WHJ3 whole entry): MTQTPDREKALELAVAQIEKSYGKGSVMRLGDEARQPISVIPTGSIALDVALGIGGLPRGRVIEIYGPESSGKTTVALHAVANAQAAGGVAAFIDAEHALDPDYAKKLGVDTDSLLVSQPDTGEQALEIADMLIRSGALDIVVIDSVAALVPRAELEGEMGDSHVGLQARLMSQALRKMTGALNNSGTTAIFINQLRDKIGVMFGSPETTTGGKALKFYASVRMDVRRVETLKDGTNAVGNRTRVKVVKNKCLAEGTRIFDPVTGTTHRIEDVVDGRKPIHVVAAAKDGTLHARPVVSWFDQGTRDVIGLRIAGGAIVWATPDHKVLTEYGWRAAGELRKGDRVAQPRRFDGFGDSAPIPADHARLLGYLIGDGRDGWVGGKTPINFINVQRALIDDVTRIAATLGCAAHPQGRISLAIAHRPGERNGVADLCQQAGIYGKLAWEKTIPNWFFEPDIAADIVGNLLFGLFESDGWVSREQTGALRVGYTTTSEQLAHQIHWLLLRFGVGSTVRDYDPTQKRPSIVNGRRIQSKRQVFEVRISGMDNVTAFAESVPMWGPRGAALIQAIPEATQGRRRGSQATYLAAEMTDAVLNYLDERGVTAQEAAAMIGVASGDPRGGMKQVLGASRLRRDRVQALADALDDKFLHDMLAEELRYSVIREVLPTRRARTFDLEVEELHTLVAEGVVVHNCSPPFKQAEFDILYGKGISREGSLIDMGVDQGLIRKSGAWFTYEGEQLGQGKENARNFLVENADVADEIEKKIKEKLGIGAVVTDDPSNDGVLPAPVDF

[9] = molecular target: G-protein coupled receptor 55 (Homo sapiens, UniProt Q9Y2T6); experiment: inhibition of LPI-stimulated GPR55 beta-arrestin translocation – imaging, U2OS, beta-arrestin-GFP, LPI agonist, primary screen (AID 2013); type: functional;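 also: antagonist potency measured as reduced agonist-driven arrestin aggregation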
Chain of G-protein coupled receptor 55 (Q9Y2T6 whole entry): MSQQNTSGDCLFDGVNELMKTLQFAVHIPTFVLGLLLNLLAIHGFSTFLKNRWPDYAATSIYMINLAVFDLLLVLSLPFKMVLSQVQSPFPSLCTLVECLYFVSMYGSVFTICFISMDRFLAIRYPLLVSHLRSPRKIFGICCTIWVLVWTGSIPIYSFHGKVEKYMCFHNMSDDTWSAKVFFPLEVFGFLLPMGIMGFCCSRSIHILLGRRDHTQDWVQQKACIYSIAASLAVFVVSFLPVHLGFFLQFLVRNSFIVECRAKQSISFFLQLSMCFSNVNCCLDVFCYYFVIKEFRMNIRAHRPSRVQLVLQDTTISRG

[10] = molecular target: Fructose-bisphosphate aldolase (Mycobacterium tuberculosis, UniProt P9WQA3); experiment: Fluorescence-based biochemical high throughput dose response assay for inhibitors of the fructose-bisphosphate aldolase (FBA) of M. tuberculosis.; type: functional
Chain of Fructose-bisphosphate aldolase (P9WQA3 whole entry, the tested form may be a part): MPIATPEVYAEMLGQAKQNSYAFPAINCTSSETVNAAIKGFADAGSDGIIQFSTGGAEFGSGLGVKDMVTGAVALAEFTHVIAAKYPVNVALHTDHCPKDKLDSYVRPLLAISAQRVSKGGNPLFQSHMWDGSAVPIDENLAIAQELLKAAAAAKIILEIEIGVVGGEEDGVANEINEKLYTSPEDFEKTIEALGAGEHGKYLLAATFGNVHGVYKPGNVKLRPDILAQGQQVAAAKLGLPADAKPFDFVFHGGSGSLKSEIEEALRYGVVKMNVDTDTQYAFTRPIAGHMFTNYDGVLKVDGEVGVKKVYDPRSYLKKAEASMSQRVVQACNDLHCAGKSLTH

[11] = off-target signal loss in HeLa-CEM21 co-culture – HeLa F-luc CTL cells, cherry-picked, counter-screen for HIV-1 Env fusion inhibitor project, dose response (AID 652040); type: functional, cell-based;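 also: potency for signal decrease marking cytotoxic or nonspecific inhibition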
[12] = NIH-3T3 fibroblast cytotoxicity, dose response, cytotoxicity control, cell-based, fluorescence, Alamar Blue, secondary assay (AID 2327); type: functional;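 also: NIH-3T3 mouse fibroblasts cultured with fluconazole at 8 µg/mL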
[13] = blockers of HIV-1 envelope-mediated cell-cell fusion – cherry-pick, dose response (AID 652057); type: functional, cell-based
[14] = viability loss in CEM21 cells – cell-based, CellTiter-Glo luminescence, cherry-picked, cytotoxicity control for viral fusion inhibitor project, dose response (AID 652042); type: functional;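 also: potency for signal decrease meaning cytotoxicity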
[15] = blockers of HIV-1 ZM109 envelope-driven cell-cell fusion – HeLa effector, CEM target cells, luciferase, cherry-pick, dose response (AID 652058); type: functional, cell-based;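 also: luciferase signal from HIV-1 Env mediated cell-cell fusion of effector and target cells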
[16] = cells
[17] = HIV-1 AD8 envelope cell-cell fusion blockers – cherry-pick, dose response (AID 652062); type: functional, cell-based;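 also: luciferase signal from cell-cell fusion driven by HIV-1 clade B AD8 Env; potency is for inhibitors of fusion seen as a drop in luminescence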
[18] = NIH3T3 cell viability loss – ATP luminescence, mouse fibroblasts, counter-screen, dose response (AID 2010); type: functional, cell-based;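 also: cells exposed to compound for about 90 hours before reading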
[19] = fluconazole-exposed Candida albicans growth modulators – fluorescence, retest, confirmation (AID 2467); type: functional, cell-based
[20] = molecular target: Cytochrome P450 2C19 (Homo sapiens, UniProt P33261); experiment: Cytochrome panel assay with activity outcomes. Panel member name: p450-cyp2c19 Compounds with AC50 equal or less than 10 uM are considered active; type: functional
Chain of Cytochrome P450 2C19 (P33261 whole entry): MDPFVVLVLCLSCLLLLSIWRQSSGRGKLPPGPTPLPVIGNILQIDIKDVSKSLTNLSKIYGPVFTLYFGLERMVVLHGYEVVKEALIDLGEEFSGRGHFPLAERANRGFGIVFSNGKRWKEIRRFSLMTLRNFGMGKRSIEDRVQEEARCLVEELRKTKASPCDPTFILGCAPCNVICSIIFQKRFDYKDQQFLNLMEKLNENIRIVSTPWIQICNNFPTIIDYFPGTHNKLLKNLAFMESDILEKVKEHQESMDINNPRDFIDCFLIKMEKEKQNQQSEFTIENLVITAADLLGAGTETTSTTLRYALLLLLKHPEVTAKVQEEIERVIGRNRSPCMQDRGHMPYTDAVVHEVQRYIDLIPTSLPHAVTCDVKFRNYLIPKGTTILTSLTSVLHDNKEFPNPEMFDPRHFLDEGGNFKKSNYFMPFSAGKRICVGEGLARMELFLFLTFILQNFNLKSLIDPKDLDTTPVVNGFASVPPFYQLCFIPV

[21] = Trypanosoma cruzi growth suppression in host cells – NIH3T3 host cells, beta-gal luminescence, confirmation (AID 2044); type: functional, cell-based;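 also: intracellular parasites grown in NIH/3T3 mouse fibroblasts as host cells; luminescent beta-galactosidase reporter signal from transgenic T. cruzi replicating inside host cells; inhibitors lower the luminescence signal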
[22] = molecular target: Beta-galactosidase (Escherichia coli, UniProt Q8VNN2); experiment: Dose response counterscreen for EBI2 assay utilizing the enzyme, b-galactosidase.; type: functional
Chain of Beta-galactosidase (Q8VNN2 whole entry): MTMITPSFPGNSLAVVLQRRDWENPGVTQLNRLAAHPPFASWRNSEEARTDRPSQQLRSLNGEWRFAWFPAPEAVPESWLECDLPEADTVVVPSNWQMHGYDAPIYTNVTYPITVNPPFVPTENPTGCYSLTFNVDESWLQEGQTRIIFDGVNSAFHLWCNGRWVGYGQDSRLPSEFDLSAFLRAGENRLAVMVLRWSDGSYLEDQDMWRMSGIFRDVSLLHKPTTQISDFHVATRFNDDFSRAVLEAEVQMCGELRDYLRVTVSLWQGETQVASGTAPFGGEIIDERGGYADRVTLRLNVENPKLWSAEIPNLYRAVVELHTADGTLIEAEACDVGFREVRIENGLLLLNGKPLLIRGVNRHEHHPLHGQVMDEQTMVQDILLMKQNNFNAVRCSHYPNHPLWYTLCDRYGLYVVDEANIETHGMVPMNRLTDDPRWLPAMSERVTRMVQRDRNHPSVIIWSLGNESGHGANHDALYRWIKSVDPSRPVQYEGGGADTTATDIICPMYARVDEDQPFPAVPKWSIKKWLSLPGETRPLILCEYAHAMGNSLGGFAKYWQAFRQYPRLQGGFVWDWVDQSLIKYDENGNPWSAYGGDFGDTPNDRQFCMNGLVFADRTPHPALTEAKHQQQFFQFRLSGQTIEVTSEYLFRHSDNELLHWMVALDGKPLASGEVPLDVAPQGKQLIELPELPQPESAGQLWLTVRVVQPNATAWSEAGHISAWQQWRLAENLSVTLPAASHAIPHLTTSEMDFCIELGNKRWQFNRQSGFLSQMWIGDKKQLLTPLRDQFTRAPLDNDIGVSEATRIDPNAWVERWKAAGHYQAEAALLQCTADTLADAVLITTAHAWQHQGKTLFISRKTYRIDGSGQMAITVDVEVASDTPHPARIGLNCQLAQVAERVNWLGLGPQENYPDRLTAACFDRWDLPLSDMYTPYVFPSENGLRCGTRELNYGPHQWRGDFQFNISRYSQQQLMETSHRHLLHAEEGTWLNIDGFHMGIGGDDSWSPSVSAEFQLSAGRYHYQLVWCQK

[23] = human cervical cancer cell viability loss – 24 h, plate reader, dry powder, cytotoxicity control, dose response (AID 686928); type: functional, cell-based; details: HeLa
[24] = HEK-293T viability loss after treatment – luminescence, T-cell screen hits, cytotoxicity control for TCR NF-kB inhibitor project, dose response (AID 489026); type: functional, cell-based;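 also: cells exposed to compound about 14 hours before the viability readout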
[25] = molecular target: Nuclear receptor subfamily 0 group B member 1 (Homo sapiens, UniProt P51843); type: functional, cell-based;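 also: HEK293T cells transfected with SF-1 and DAX-1 plus StAR promoter luciferase reporter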
Chain of Nuclear receptor subfamily 0 group B member 1 (P51843 whole entry): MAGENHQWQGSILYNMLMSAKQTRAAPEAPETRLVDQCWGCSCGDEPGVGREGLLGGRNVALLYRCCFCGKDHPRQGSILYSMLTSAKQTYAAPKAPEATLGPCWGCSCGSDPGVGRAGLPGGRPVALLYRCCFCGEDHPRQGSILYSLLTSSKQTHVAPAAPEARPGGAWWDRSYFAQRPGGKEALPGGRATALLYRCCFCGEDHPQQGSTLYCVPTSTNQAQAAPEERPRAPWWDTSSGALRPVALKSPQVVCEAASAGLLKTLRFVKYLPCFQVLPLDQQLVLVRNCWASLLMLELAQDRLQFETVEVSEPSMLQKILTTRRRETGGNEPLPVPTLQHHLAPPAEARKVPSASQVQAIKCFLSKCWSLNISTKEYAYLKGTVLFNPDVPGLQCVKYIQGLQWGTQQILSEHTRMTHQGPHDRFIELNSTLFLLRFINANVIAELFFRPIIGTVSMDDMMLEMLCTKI

[26] = cells; type: functional, cell-based
[27] = activation of miR-122 Renilla sensor silencing – cell-based, Huh7 psiCHECK-miR122, Renilla luciferase, cherry-picked, dose response (AID 651956); type: functional;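 also: huh7 hepatoma cells stably carrying a psiCHECK-2 miR-122 sensor plasmid; renilla luciferase signal reporting endogenous miR-122 activity after 48 h compound exposure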
[28] = general mammalian cell viability loss – inhibitor set, cherry-pick, set 2, cytotoxicity control for miR-122 modulator project, dose response (AID 720697); type: functional, cell-based
[29] = inhibition of bursicon-driven LGR2 cAMP signaling – cell-based, HEK293, CRE-luciferase reporter, cherry pick, dose response (AID 743342); type: functional
[30] = blockade of melanocortin 4 receptor signaling – cell-based, plate reader, cherry pick, counter-screen for LGR2 antagonist project, dose response (AID 743444); type: functional;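 also: transfected HEK 293 cells stimulated with alpha-MSH peptide; potency of inhibitors of the alpha-MSH evoked signal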
[31] = toxicity toward HepG2 liver cells – cell-based, plate reader, cherry-pick, antagonist series, cytotoxicity control, dose response (AID 743416); type: functional
[32] = viability loss in HEK293 cells – cell-based, plate reader, cherry-picked samples, cytotoxicity control, dose response (AID 743446); type: functional
[33] = A549 cell cytotoxicity, dose response, cytotoxicity control, plate reader, cherry-pick, antagonist series (AID 743412); type: functional, cell-based
[34] = inhibition of ADAM10 peptide cleavage – biochemical, FRET peptide substrate, recombinant human ADAM10, selectivity assay for ADAM17 exosite inhibitor project, dose response (AID 743259);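 also: ADAM10 enzyme cleaving a FRET peptide substrate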
[35] = alpha-synuclein stem-loop luciferase translation blockers – H4 neuroglioma cells, luminescence, confirmation (AID 1988); type: functional, cell-based
[36] = molecular target: Disintegrin and metalloproteinase domain-containing protein 17 (Homo sapiens, UniProt P78536); experiment: exosite inhibitors of ADAM17, dose response, biochemical (AID 743260)
Chain of Disintegrin and metalloproteinase domain-containing protein 17 (P78536 whole entry, the tested form may be a part): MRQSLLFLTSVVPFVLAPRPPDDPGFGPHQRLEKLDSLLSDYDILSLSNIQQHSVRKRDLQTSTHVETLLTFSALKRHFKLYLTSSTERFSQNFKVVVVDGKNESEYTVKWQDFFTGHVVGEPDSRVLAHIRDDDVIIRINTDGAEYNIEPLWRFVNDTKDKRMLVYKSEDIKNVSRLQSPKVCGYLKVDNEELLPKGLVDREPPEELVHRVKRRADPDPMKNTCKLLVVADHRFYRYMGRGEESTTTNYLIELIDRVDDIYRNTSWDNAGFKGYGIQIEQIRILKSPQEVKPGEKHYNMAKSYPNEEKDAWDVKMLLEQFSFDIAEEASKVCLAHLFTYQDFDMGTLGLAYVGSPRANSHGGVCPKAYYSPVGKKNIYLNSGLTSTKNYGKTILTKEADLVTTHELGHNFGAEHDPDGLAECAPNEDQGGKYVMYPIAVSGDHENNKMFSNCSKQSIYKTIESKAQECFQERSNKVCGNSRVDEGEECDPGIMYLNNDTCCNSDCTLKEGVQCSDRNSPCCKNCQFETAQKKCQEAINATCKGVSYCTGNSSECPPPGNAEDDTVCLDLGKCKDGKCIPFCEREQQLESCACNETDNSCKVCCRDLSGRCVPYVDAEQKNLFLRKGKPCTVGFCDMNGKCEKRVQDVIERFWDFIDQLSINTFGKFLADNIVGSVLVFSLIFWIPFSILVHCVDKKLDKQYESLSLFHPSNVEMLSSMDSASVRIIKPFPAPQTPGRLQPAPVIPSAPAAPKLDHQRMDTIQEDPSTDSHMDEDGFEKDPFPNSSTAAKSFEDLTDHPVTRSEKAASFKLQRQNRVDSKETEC

[37] = Luminescence Cell-Based Dose Response HTS to Identify Inhibitors of 5'UTR Stem-Loop Driven Prion Protein mRNA Translation in H4 Neuroglioblastoma Cells. [Related pubchem assays: 1827 (Project Summary), 1813 (Primary HTS)]; type: functional
[38] = luciferase reporter signal suppression in cells – H4 neuroglioma cells, luminescence, dose response (AID 1990); type: functional, cell-based

CCOC(=O)c1c(CSC(=N)N)n(-c2ccccc2)c2cc(Br)c(OC(C)=O)cc12
EC50 [1]: > 120 µM (not active) | EC50 [2]: > 120 µM (not active) | AC50 [3]: 5.9 µM (active) | EC50 [4]: > 59.6 µM (inactive) | EC50 [5]: > 59.6 µM (inactive) | IC50 [6]: > 122 µM (inactive) | EC50 [7]: 9.69 µM (active) | EC50 [8]: 9.76 µM (active) | IC50 [9]: 3.23 µM (active)

COCCCNC(=S)NCCCNc1nc2cc3c(cc2cc1C#N)OCO3
IC50 [10]: 1.2 µM (active)

CC[n+]1c(C=CN(C)c2ccccc2)sc2ccc(Cl)cc21.[O-][Cl+3]([O-])([O-])[O-]
AC50 [11]: 13 µM (active) | EC50 [12]: > 150 µM (inactive) | AC50 [13]: 26.3 µM (active) | AC50 [14]: 59.3 µM (active) | AC50 [15]: 39.8 µM (active) | EC50 [16]: 0.146 µM (active) | AC50 [17]: 8.92 µM (active) | EC50 [18]: 5.94 µM (active) | EC50 [19]: 3.29 µM (active) | AC50 [20]: inconclusive | EC50 [21]: < 0.1 µM (active)

Cn1cc(Cl)c(C(=O)NN=C(S)Nc2cccc(Cl)c2)n1
IC50 [6]: > 122 µM (inactive)

CCc1ccc2oc(C(=O)N3CCN(c4ccc(OC)cc4)CC3)cc(=O)c2c1
IC50 [22]: > 80 µM (inactive)

Cc1ccc2cc3c(NC(=O)c4ccco4)nn(C)c3nc2c1
AC50 [23]: 179 µM (active) | AC50 ([23]; 24 h): 121 µM (active)

Cc1cccc(N2CCN(C(=O)c3ccc4[nH]c(C)c(C)c4c3)CC2)c1C
IC50 [22]: > 80 µM (inactive) | IC50 [24]: > 80 µM (inactive)

Cc1ccc2nc(NC(=O)COC(=O)c3cccnc3)sc2c1
IC50 [25]: > 67.5 µM (inactive) | IC50 [26]: > 67.5 µM (inactive)

CC(=O)N(C)C[C@H]1Oc2cc(/C=C/c3ccccc3)ccc2S(=O)(=O)N([C@@H](C)CO)C[C@H]1C
AC50 [27]: 26.9 µM (active) | AC50 [28]: 0.451 µM (active)

C[C@@H]1CN([C@@H](C)CO)C(=O)Cc2cc(NS(=O)(=O)c3cccs3)ccc2O[C@H]1CN(C)Cc1ccc(Cl)c(Cl)c1
AC50 [13]: 9.27 µM (active) | AC50 [15]: < 0.26 µM (active) | AC50 [17]: 0.486 µM (active)

C[C@H](CO)N1C[C@H](C)[C@H](CN(C)C(=O)Nc2cccc3ccccc23)OCCCC[C@H](C)Oc2ccc(NC(=O)NC3CCCCC3)cc2C1=O
AC50 [29]: 4.13 µM (active) | AC50 [30]: 45.6 µM (active)

C[C@@H]1CN([C@@H](C)CO)C(=O)c2cc(NC(=O)c3ccncc3)ccc2O[C@@H](C)CCCCO[C@H]1CN(C)C(=O)Nc1cccc2ccccc12
AC50 [29]: 2.91 µM (active) | AC50 [31]: 17.1 µM (active) | AC50 [32]: 17.1 µM (active) | AC50 [30]: 9.74 µM (active) | AC50 [33]: 14.3 µM (active)

C/C(=N/NC(=O)c1ccoc1C)c1cccc(NC(=O)C(F)(F)F)c1
IC50 [25]: > 67.5 µM (inactive) | IC50 [26]: > 67.5 µM (inactive)

CCNC(=S)N/N=C/c1cn(Cc2ccccc2F)c2ccccc12
IC50 [34]: > 69.5 µM (inactive) | EC50 [35]: 19.7 µM (active) | IC50 [36]: > 69.5 µM (inactive) | EC50 [37]: 24.4 µM (active) | EC50 [38]: 15.9 µM (active)

CN(C)c1ccc(/C=N\NC(=O)CC#N)cc1
IC50 [10]: > 1.11 µM (active)
